Test results reported in US7923204B2, “Forward mutation assay based on 5-fluorouracil resistance” (priority 2003, dated 2011).
Structures can show the parent of a compound that is named as a salt. Where two headings read alike, the source gives them in different places. Marks after values point to notes of the source that are not given here.

How the values were obtained:
[1] = system: Salmonella; settings: cited from earlier work
[2] = system: FU100; settings: for Lowest Positive Dose: lowest dose tested giving a positive response
Method: Briefly, in order to practice the disclosed mutation assay one-ml aliquots of exponentially growing bacteria are exposed to the test agent for two hours in the presence and absence of a metabolic activation system, such as a mammalian (i.e., rat, hamster or human) liver homogenate (S9-fraction or liver microsomal enzymes). The aliquots are then diluted, allowed to grow for 3 hours, and assessed for treatment-related toxicity/inhibition by optical density. The cultures are subsequently diluted a second time and grown overnight to permit full recovery from toxicity and to allow expression of the FU^R phenotype. Samples of the cultures are then plated in 384-well microtiter dishes in the presence of 2 μg/ml 5-FU and the pH-sensitive indicator bromcresol purple. Three days later positive wells containing FU^R colonies are detected by their yellow color and enumerated. Treated cultures are then compared to control plates to determine genotoxic activity.
For each mutation experiment, two frozen 1-ml aliquots of FU100 were quickly thawed in a 37° C. water bath, pelleted by centrifugation, washed to remove the DMSO, and suspended in 35 mL of MinE medium. The culture was shaken for approximately 1 hour at 37° C. until the optical density at 600 nm (OD600) reached the target density of 0.3. A 16-ml aliquot of culture was added to each of two 50-ml tubes containing 3.6 ml of a NADPH-generating system (5.6 mM glucose-6-phosphate, 4.5 mM NADP+, 5 mM sucrose, 110 mM Na2HPO4, 37 mM KCl, and 9 mM MgCl2) and either 0.4 ml rat liver S-9 or an equal volume of sodium phosphate buffer. Aliquots of these mixtures were distributed into three 12-well cluster dishes (one for exposure with S-9, one for exposure without S-9, one for controls with and without S-9), and exposed to test compounds as 1-ml aliquots for 2 hour as outlined in FIG. 1.
Following treatment, the 1-ml aliquots were transferred into 9 ml of warm MinE medium in a 50 ml tube and incubated at 37° C. on a rotary wheel for 3 hours. Next, 20 ml of medium was added to each culture tube and 0.25 ml aliquots were transferred to a 96-well plate for OD600 measurements to assess toxicity (OD Day 1). […] Bulk cultures were then incubated overnight in the dark at 30° C. to permit recovery from toxicity and to allow time for the test cells to express the FU^R phenotype.
The next day, OD600 was again assessed to adjust cell number plated on 5-FU plates (OD Day 2; 100 μl of the culture diluted with 150 μl MinE medium for OD600 measurements). For plating, a 35 μl aliquot of each culture was added to 31.4 mL of MinE medium with 2 μg/ml of 5-FU and 10 μg/ml of bromcresol purple. The mixture was then dispersed into a 384-well plate (75 μl/well) and placed at 37° C. for 3 days in a humidified incubator.
The data obtained for both survival (OD day 1), relative number of cells plated (OD day 2), and number of positive wells were imported into an Excel template.
Table 8 summarizes the criteria for positive result in 5-FU assay using the FU100 tester strain described and claimed herein. […] A positive compound was defined when two or more doses met the aforementioned criteria.

[3] = system: micronucleus; settings: cited from earlier work
[4] = system: sister chromatid exchange; settings: cited from earlier work
[5] = system: chromosome aberrations; settings: cited from earlier work
[6] = system: FU100
[7] = system: mouse lymphoma; settings: cited from earlier work
[8] = NTP Results Report 12 Aug. 2002 or cited reference (footnotes f, g, i, j)
[9] = NTP Results Report 12 Aug. 2002
[10] = in the presence of S9 activation (+), FU100, 2 h exposure
[11] = without S9 activation (−), FU100, 2 h exposure
[12] = in the presence of S9 activation (+), approximate, first dose with greater than 50% survival by optical density on Day 1
[13] = without S9 activation (−), approximate, first dose with greater than 50% survival by optical density on Day 1
[14] = in the presence of S9 activation (+)

SMILES	NTP Results: SA = Salmonella [1, 8]	Results (5-FU assay) [2]	NTP Results: SC = sister chromatid exchange [4, 9]	NTP Results: CA = chromosome aberrations [5, 9]	Results (5-FU assay) [2, 10]	Results (5-FU assay) [2, 11]	LD50 [6, 12] [µg/mL]	LD50 [6, 13] [µg/mL]	NTP Results: SA = Salmonella [1]	other results
CC(C)CON=O [Isobutyl Nitrite]	(SA+, CA+, SC+, MN+)	Pos	(SA+, CA+, SC+, MN+)	(SA+, CA+, SC+, MN+)						response in the 5-FU Assay (in words) [2]: positive compounds in toxic concentrations; NTP Results: MN = micronucleus [3, 9]: (SA+, CA+, SC+, MN+)
COC(=O)[C@H]1[C@H]2C[C@@H]3c4[nH]c5cc(OC)ccc5c4CCN3C[C@H]2C[C@@H](OC(=O)c2cc(OC)c(OC)c(OC)c2)[C@@H]1OC [Reserpine]	−		−		Neg	Neg	>1500	>1500		NTP Results: MN = micronucleus [3, 9]: −; NTP Results: ML = mouse lymphoma [7, 9]: −
CC/C(=C(/CC)c1ccc(O)cc1)c1ccc(O)cc1 [Diethylstilbestrol]		Neg	−	+					(SA−, CA+, SC−, ML+)	NTP Results: ML = mouse lymphoma [7, 9]: +
Oc1cccc2cccnc12 [8-Hydroxyquinoline]									(SA+, CA+^w, SC+, ML+, MN−)	response in the 5-FU Assay (in words) [2]: positive compounds in toxic concentrations; NTP Results: MN = micronucleus [3]: (SA+, CA+^w, SC+, ML+, MN−); NTP Results: ML = mouse lymphoma [7]: (SA+, CA+^w, SC+, ML+, MN−); NTP Results: SC = sister chromatid exchange [4]: (SA+, CA+^w, SC+, ML+, MN−); NTP Results: CA = chromosome aberrations [5]: (SA+, CA+^w, SC+, ML+, MN−)
Cl.Nc1c2ccccc2nc2ccccc12.O [9-Aminoacridine•HCl•H2O]	(SA+, CA+, SC+)		(SA+, CA+, SC+)	(SA+, CA+, SC+)	Pos	Pos	>9	>9		Lowest Positive Dose [2, 14]: 16 µg/mL; response in the 5-FU Assay (in words) ([2]; text and figure legend (FIG. 6), with or without S9): positive compounds in toxic concentrations; Lowest Positive Dose ([2]; without S9 activation (−)): 16 µg/mL
C=CCc1ccc2c(c1)OCO2 [Safrole]		Neg					>50	>60	(SA−, CA−, SC+ ML+)	NTP Results: ML = mouse lymphoma [7]: (SA−, CA−, SC+ ML+); NTP Results: SC = sister chromatid exchange [4]: (SA−, CA−, SC+ ML+); NTP Results: CA = chromosome aberrations [5]: (SA−, CA−, SC+ ML+)
Oc1ccccc1 [Phenol]		Neg							(SA−, CA+, SC+, ML+)	response in the 5-FU Assay (in words) [2]: negative/toxic; NTP Results: ML = mouse lymphoma [7]: (SA−, CA+, SC+, ML+); NTP Results: SC = sister chromatid exchange [4]: (SA−, CA+, SC+, ML+); NTP Results: CA = chromosome aberrations [5]: (SA−, CA+, SC+, ML+)
OCc1ccccc1 [Benzyl Alcohol]	−		+^w	+	Neg	Neg	>500	>900		
OCCO [Ethylene Glycol]		Neg							(SA−, CA−, SC−, ML−)	LD50 ([6]; Salmonella typhimurium): >5000 µg/mL; NTP Results: ML = mouse lymphoma [7]: (SA−, CA−, SC−, ML−); NTP Results: SC = sister chromatid exchange [4]: (SA−, CA−, SC−, ML−); NTP Results: CA = chromosome aberrations [5]: (SA−, CA−, SC−, ML−)
Nc1ccc([N+](=O)[O-])cc1O [2-Amino-5-nitrophenol]	(SA+, CA+, SC+, ML+)		(SA+, CA+, SC+, ML+)	(SA+, CA+, SC+, ML+)	Neg	Pos	>150	>300		Lowest Positive Dose ([2]; without S9 activation (−)): 2.8 µg/mL; NTP Results: ML = mouse lymphoma [7, 9]: (SA+, CA+, SC+, ML+)
COc1ccc(O)c(C(C)(C)C)c1 [Butylated Hydroxyanisole]	(SA−, MN−)				Neg	Neg	>30	>30		NTP Results: MN = micronucleus [3, 9]: (SA−, MN−)
Oc1ccc(Cl)cc1Cl [2,4-Dichlorophenol]			+	−	Neg	Neg				NTP Results: ML = mouse lymphoma [7, 9]: +
CN(C)[C@@H]1C(O)=C(C(N)=O)C(=O)[C@@]2(O)C(O)=C3C(=O)c4c(O)cccc4[C@@](C)(O)[C@H]3C[C@@H]12 [Tetracycline HCl]	−	Neg	−	−			>0.1	>0.1		
Cc1ccc2cc3c(ccc4ccccc43)c3c2c1CC3 [20-Methylcholanthrene]	+		+	−	Pos	Pos	>50	>50		Lowest Positive Dose [2, 14]: 0.2 µg/mL; Lowest Positive Dose ([2]; without S9 activation (−)): 5 µg/mL
O=[N+]([O-])c1ccc(O)cc1 [p-Nitrophenol]	−		−	+	Neg	Neg	>50	>50		
